This is an account of results in US11827628B2, “Compositions and methods for inhibition of the JAK pathway” (Rigel Pharmaceuticals, Inc., priority 2005, dated 2023).

The IC50 is the concentration at which inhibition is half-maximal.

Assay [1] concerns IL-4 stimulated expression of CD23 in human Ramos B cells (JAK-1 and JAK-3). The assay is described as follows: Assay for Ramos B-Cell Line Stimulated with IL-4 (CD23 upregulation, FACS). The format is cell-based. The conditions noted are these: Ramos B cells stimulated with IL-4, CD23 expression by FACS, read-out: IC50, Example 41. The method in brief: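 Read-out is surface CD23 by FACS after anti-CD23-PE staining, giving IC50. Before this, cells were stimulated 20-24 h with 50 units/mL (final) human IL-4, following 1 h compound or vehicle pre-treatment at 37 °C; log-phase Ramos B cells, 5×10^4 per well in 5% serum RPMI.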
(Flow cytometry measures light scatter and fluorescence of single cells or particles in a stream.)

A further assay deals with Primary human T-cells. As to the kind of experiment: Primary Human T-Cell Proliferation Assay Stimulated with IL-2 (CellTiter-Glo). The format is cell-based. The settings on record: primary human T-cells stimulated with IL-2, proliferation, read-out: IC50, Example 42. In short, it runs like this:
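Peripheral blood T-cells pre-activated with anti-CD3/anti-CD28 and IL-2 were washed free of IL-2, then cultured with compound plus IL-2 for 72 hours at 37° C, duplicate wells. Viability read as ATP by CellTiter-Glo luminescence; IC50 reported.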
(ATP-based viability assays read luminescence as a measure of living cells.)

Where two headings read alike, the source gives them in different places.

As to `Cc1nccn1Cc1ccc(Nc2nc(Nc3cccc(S(N)(=O)=O)c3)ncc2F)cc1` [III-94, N2-(3-Aminosulfonylphenyl)-5-fluoro-N4-[4-(2-methyl-1-imidazolylmethyl)phenyl]-2,4-pyrimidinediamine], the results for the IC50 (in assay [1]; in the assay on Primary human T-cells) were 0.162 µM and 0.716 µM, respectively.

With `NS(=O)(=O)c1ccc(Nc2ncc(F)c(Nc3ccc(Cn4ccnn4)cc3)n2)cc1` [III-96], the IC50 in assay [1] was found to be 3.33 µM; in the assay on Primary human T-cells, 2.19 µM.

With `CNS(=O)(=O)c1cc(Nc2ncc(F)c(Nc3ccc(Cn4ccnn4)cc3)n2)ccc1C` [III-98, 5-Fluoro-N2-[3-(N-methylaminosulfony)-4-methylphenyl]-N4-{4-[1-(1,2,3-thazolyl)methyl]phenyl}-2,4-pyrimidinediamine], the IC50 amounted to 0.117 µM in assay [1] and 0.457 µM with Primary human T-cells.

Regarding `NS(=O)(=O)c1ccc(Nc2ncc(F)c(Nc3ccc(Cn4cncn4)cc3)n2)cc1` [III-99, N2-(4-Aminosulfonylphenyl)-5-fluoro-N4-{4-[1-(1,2,4-thazolyl)methyl]phenyl}-2,4-pyrimidinediamine], the IC50 in assay [1] amounted to 1.03 µM; in the assay with Primary human T-cells, 2.17 µM.

Regarding `Cc1ccc(Nc2ncc(F)c(Nc3ccc(Cn4cncn4)cc3)n2)cc1S(N)(=O)=O` [III-101, N2-(3-Aminosulfonyl-4-methylphenyl)-5-fluoro-N4-{4-[1-(1,2,4-thazolyl)methyl]phenyl}-2,4-pyrimidinediamine], the IC50 in assay [1] was found to be 0.24 µM; in the assay on Primary human T-cells, 0.446 µM.

For the compound `CNS(=O)(=O)c1cc(Nc2ncc(F)c(Nc3ccc(Cn4cncn4)cc3)n2)ccc1C` [III-102, 5-Fluoro-N2-[3-(N-methylaminosulfony)-4-methylphenyl]-N4-{4-[1-(1,2,4-thazolyl)methyl]phenyl}-2,4-pyrimidinediamine], the 50% inhibitory concentration (IC50) came out at 0.302 µM in assay [1] and 0.486 µM in the assay on Primary human T-cells.

Take `CCNC(=O)NCc1cccc(Nc2nc(Nc3ccc(S(N)(=O)=O)cc3)ncc2F)c1` [III-116, N2-(4-aminosulfonyl)phenyl-N4-(3-ethylaminocarbonylaminomethyl)phenyl-5-fluoro-2,4-pyrimidinediamine]: the half-inhibitory concentration (IC50) was 0.197 µM in assay [1] and 3.95 µM with Primary human T-cells.

Take `CCNC(=O)NCc1cccc(Nc2nc(Nc3ccc(C)c(S(N)(=O)=O)c3)ncc2F)c1` [III-118, N2-(3-aminosulfonyl-4-methyl)phenyl-N4-(3-ethylaminocarbonylaminomethyl)phenyl-5-fluoro-2,4-pyrimidinediamine]: the IC50 in assay [1] was determined as 0.624 µM; in the assay with Primary human T-cells, 2.29 µM.

Turning to `CCNC(=O)NCc1ccc(Nc2nc(Nc3cccc(S(N)(=O)=O)c3)ncc2F)cc1` [III-120, N2-(3-Aminosulfonylphenyl]-N4-(4-ethylaminocarbonylaminomethylphenyl)-5-fluoro-2,4-pyrimidinediamine], the IC50 in assay [1] (Homo sapiens, Ramos) stood at 0.655 µM; with Primary human T-cells (Homo sapiens, T-cell) it was 0.554 µM.

As to `CCNC(=O)NCCc1ccc(Nc2nc(Nc3cccc(S(N)(=O)=O)c3)ncc2F)cc1` [III-123, N2-(3-aminosulfonyl)phenyl-N4-[4-(2-ethylaminocarbonylamino)ethyl]phenyl-5-fluoro-2,4-pyrimidinediamine], the IC50 was 0.173 µM in assay [1] and 1.39 µM with Primary human T-cells.

`CCCN(Cc1ccc(Nc2nc(Nc3cccc(S(N)(=O)=O)c3)ncc2F)cc1)C(N)=O` [III-126, N2-(3-aminosulfonyl)phenyl-N4-[4-(N-carbamoyl-N-propyl)aminomethyl]phenyl-5-fluoro-2,4-pyrimidinediamine]: the concentration for half-maximal inhibition (IC50) in assay [1] stood at 0.197 µM; in the assay on Primary human T-cells it was 0.47 µM.

For `CCCN(Cc1ccc(Nc2nc(Nc3ccc(C)c(S(N)(=O)=O)c3)ncc2F)cc1)C(N)=O` [III-127, N2-(3-aminosulfonyl-4-methyl)phenyl-N4-[4-(N-carbamoyl-N-propyl)aminomethyl]phenyl-5-fluoro-2,4-pyrimidinediamine], the results for the IC50 (in assay [1]; in the assay with Primary human T-cells) were 0.198 µM and 0.612 µM, respectively.

On to `NS(=O)(=O)c1ccc(Nc2ncc(F)c(Nc3ccc(-c4cnco4)cc3)n2)cc1` [IV-8, N2-(4-Aminosulfonylphenyl)-5-fluoro-N4-[4-(1,3-oxazol-5-yl)phenyl]-2,4-pyrimidinediamine], for which the IC50 in assay [1] (Homo sapiens, Ramos) was found to be 0.166 µM; in the assay with Primary human T-cells (Homo sapiens, T-cell), 0.627 µM.

Turning to `CN(C)S(=O)(=O)c1cccc(Nc2nc(Nc3cccc(S(N)(=O)=O)c3)ncc2F)c1` [IV-9, N2-(3-Aminosulfonylphenyl)-5-fluoro-N4-[3-(N,N-dimethylaminosulfonyl)phenyl]-2,4-pyrimidinediamine], the IC50 is 0.19 µM in assay [1] (Homo sapiens, Ramos) and 1 µM in the assay with Primary human T-cells (Homo sapiens, T-cell).

As for `Cc1ccc(Nc2ncc(F)c(Nc3cccc(S(=O)(=O)N(C)C)c3)n2)cc1S(N)(=O)=O` [IV-10, N2-(3-Aminosulfonyl-4-methylphenyl)-5-fluoro-N4-[3-(N,N-dimethylaminosulfonyl)phenyl]-2,4-pyrimidinediamine], the IC50 in assay [1] (Homo sapiens, Ramos) turned out to be 0.135 µM; with Primary human T-cells (Homo sapiens, T-cell) it was 0.714 µM.

Consider `CNS(=O)(=O)c1cccc(Nc2nc(Nc3ccc(C)c(S(N)(=O)=O)c3)ncc2F)c1` [IV-12, N2-(3-Aminosulfonyl-4-methylphenyl)-5-fluoro-N4-[3-(N-methylaminosulfonyl)phenyl]-2,4-pyrimidinediamine], for which the IC50 in assay [1] (Homo sapiens, Ramos) amounted to 0.257 µM; in the assay on Primary human T-cells (Homo sapiens, T-cell) it was 1.22 µM.

With `N#Cc1cc2cc(Nc3nc(Nc4ccc(Cl)c(S(N)(=O)=O)c4)ncc3F)ccc2o1` [IX-21], the IC50 in assay [1] turned out to be 0.271 µM; in the assay with Primary human T-cells it was 2.74 µM.

With `CC(C)c1ccc(Nc2ncc(F)c(Nc3ccc4oc(C#N)cc4c3)n2)cc1S(N)(=O)=O` [IX-22, N2-(3-Aminosulfonyl-4-iso-propylphenyl)-N4-(2-cyanobenzofuran-5-yl)-5-fluoro-2,4-pyrimidinediamine], the IC50 in assay [1] (Homo sapiens, Ramos) was determined as 0.295 µM; with Primary human T-cells (Homo sapiens, T-cell) it was 1.59 µM.

As to `CC(=O)N1CCN(C(=O)c2ccc(Nc3nc(Nc4ccc(C)c(S(N)(=O)=O)c4)ncc3F)cc2)CC1` [IX-24, N4-[4-(1-Acetyl-4-piperizinyl)carbonylphenyl]-N2-(3-Aminosulfonyl-4-methylphenyl)-5-fluoro-2,4-pyrimidinediamine], the half-inhibitory concentration (IC50) is 6.33 µM in assay [1] and 38.4 µM in the assay on Primary human T-cells.

Turning to `Cc1ccc(Nc2ncc(F)c(Nc3ccc(C(=O)N4CCN(C)CC4)cc3)n2)cc1S(N)(=O)=O` [IX-27, N2-(3-Aminosulfonyl-4-methylphenyl)-5-fluoro-N4-[4-(4-methylpiperazin-1-ylcarbonyl)phenyl]-2,4-pyrimidinediamine], the IC50 in assay [1] (Homo sapiens, Ramos) was determined as 1.38 µM; in the assay with Primary human T-cells (Homo sapiens, T-cell), 7.63 µM.

With `CN1CCN(C(=O)c2ccc(Nc3nc(Nc4cccc(S(N)(=O)=O)c4)ncc3F)cc2)CC1` [IX-28, N2-(3-Aminosulfonylphenyl)-5-fluoro-N4-[4-(4-methylpiperazin-1-ylcarbonyl)phenyl]-2,4-pyrimidinediamine], the IC50 worked out at 1.66 µM in assay [1] (Homo sapiens, Ramos) and 10.1 µM in the assay on Primary human T-cells (Homo sapiens, T-cell).

Take `Cc1ccc(Nc2ncc(F)c(Nc3ccc(C(=O)N4CCN(S(C)(=O)=O)CC4)cc3)n2)cc1S(N)(=O)=O` [IX-30, N2-(3-Aminosulfonyl-4-methylphenyl)-5-fluoro-N4-[4-(1-methanesulfonyl-4-piperizinyl)carbonylphenyl]-2,4-pyrimidinediamine]: the IC50 in assay [1] was 1.94 µM; in the assay with Primary human T-cells it was 6.8 µM.

As to `COC(=O)c1ccc(Nc2nc(Nc3ccc(C)c(S(N)(=O)=O)c3)ncc2F)s1` [IX-46, N2-(3-Aminosulfonyl-4-methylphenyl)-5-fluoro-N4-(5-methoxycarbonyl-thiophene-2-yl)-2,4-pyrimidinediamine], the IC50 was 0.0739 µM in assay [1] (Homo sapiens, Ramos) and 1.39 µM in the assay on Primary human T-cells (Homo sapiens, T-cell).

As for `COC(=O)c1ccc(Nc2nc(Nc3cccc(S(N)(=O)=O)c3)ncc2F)s1` [IX-47, N2-(3-Aminosulfonylphenyl)-5-fluoro-N4-(5-methoxycarbonyl-thiophene-2-yl)-2,4-pyrimidinediamine], the IC50 in assay [1] (Homo sapiens, Ramos) was 0.223 µM; with Primary human T-cells (Homo sapiens, T-cell), 2.39 µM.

As to `COC(=O)c1ccc(Nc2nc(Nc3ccc(S(N)(=O)=O)cc3)ncc2F)s1` [IX-49, N2-(4-Aminosulfonylphenyl)-5-fluoro-N4-(5-methoxycarbonyl-thiophene-2-yl)-2,4-pyrimidinediamine], the IC50 in assay [1] (Homo sapiens, Ramos) was determined as 0.0965 µM; with Primary human T-cells (Homo sapiens, T-cell), 61.9 µM.

For `CNS(=O)(=O)c1cc(Nc2ncc(F)c(Nc3ccc(-c4ccccn4)c(OCCl)c3)n2)ccc1C` [IX-54, 5-Fluoro-N2-[3-N-(methyl)aminosulfonyl-4-methylphenyl]-N4-[4-(2-pyridinyl)-3-chloromethyleneoxyphenyl]-2,4-pyrimidinediamine], the IC50 in assay [1] turned out to be 0.174 µM; in the assay on Primary human T-cells, 2.47 µM.

Consider `COc1ccc(Nc2nc(Nc3ccc(Cl)c(S(N)(=O)=O)c3)ncc2F)cc1Cl` [VI-2, N2-(3-Aminosulfonyl-4-chlorophenyl)-N4-(3-chloro-4-methoxyphenyl)-5-fluoro-2,4-pyrimidinediamine], for which the IC50 in assay [1] (Homo sapiens, Ramos) amounted to 0.0892 µM; in the assay with Primary human T-cells (Homo sapiens, T-cell), 3.57 µM.

On to `NS(=O)(=O)c1cc(Nc2ncc(F)c(Nc3ccc(Cl)c(Cl)c3)n2)ccc1Cl` [VI-3, N2-(3-Aminosulfonyl-4-chlorophenyl)-N4-(3,4-dichlorophenyl)-5-fluoro-2,4-pyrimidinediamine], for which the IC50 in assay [1] (Homo sapiens, Ramos) came to 0.206 µM; with Primary human T-cells (Homo sapiens, T-cell) it was 8.79 µM.

Take `COc1ccc(Nc2nc(Nc3ccc(C)c(S(N)(=O)=O)c3)ncc2F)cc1Cl` [VI-4, N2-(3-Aminosulfonyl-4-methylphenyl)-N4-(3-chloro-4-methoxyphenyl)-5-fluoro-2,4-pyrimidinediamine]: the IC50 is 0.0211 µM in assay [1] (Homo sapiens, Ramos) and 0.231 µM in the assay on Primary human T-cells (Homo sapiens, T-cell).
